These results are taken from patent US9868715B2 (THE BOARD OF REGENTS OF THE UNIVERSITY OF TEXAS SYSTEMS, priority 2014, dated 2018).

One may read the melting point as the temperature, or range, at which the solid turns liquid.

Series [1] relates to transformed PSC (human pancreatic stellate cells). Briefly: PSC proliferation, AlamarBlue Cell Viability Assay. In kind it is cell-based. Conditions: for Inhibitory Effect (%) on PSC proliferation / inhibition at 10 µM: 10 μM; for Inhibitory Effect (%) on PSC proliferation / inhibition at 5 µM / inhibition at 10 µM / inhibition at 20 µM: mean of at least three independent experiments, NE = No effect; for inhibition at 5 µM / inhibition at 10 µM / inhibition at 20 µM: Homo sapiens, read-out: Inhibitory Effect (%) on PSC proliferation; for Antiproliferative effect on PSC, result in words: transformed PSC, AlamarBlue. How it is done:
The calculated lipophilicity (cLogP) and topological polar surface area (tPSA) values of synthesized analogues are listed in Table 1. […] AlamarBlue is a non-toxic reagent that is converted to a highly fluorescent end product by viable cells.
Under an IRB-approved tissue protocol, discarded human resected pancreatic tissue (500 mm^3) was attained fresh from the operating room at the University of Texas Medical Branch. The tissue was minced and plated on a collagen-coated flask (15 μg/mL, Invitrogen) with DMEM (VWR; Radnor, Pa.) supplemented with penicillin 200 U/mL, streptomycin 200 μg/mL, amphotericin B 0.25 μg/mL and gentimicin 50 μg/mL (Invitrogen, Carlsbad Calif.), 10% fetal bovine serum (Lonza, Walkersville, Md.), 1% insulin-transferrin, selenium-ethanolamine (Gibco, Grand Island, N.Y.), and 1% non-essential amino acids (Sigma-Aldrich, St. Louis, Mo.). The human PSC were isolated by the outgrowth method.^41-43 The purity of PSC culture was confirmed by immunohistochemical staining for vimentin, α-smooth muscle actin, glial fibrillar acidic protein, or Oil red O staining. Primary PSC were transformed and immortalized for use in experiments using lentiviral vectors containing SV40 Large T antigen and human telomerase (plasmid #12245 and 12246; Addgene, Cambridge, Mass.). Cultures were maintained in DMEM with 10% FBS, at 37° C. in a humidified 95% O2/5% CO2 atmosphere.
Cell proliferation assay. Transformed PSC (3×10^3) were plated in 96-well plates, in sextuplicate. […] AlamarBlue reagent (10% sample volume, DAL1025) was added to each well per Invitrogen's protocol. Fluorescence was recorded using excitation/emission wavelengths of 544/590 nm and the SpectraMax M2 Microplate Reader (Molecular Devices, Sunnyvale Calif.).
Statistical analysis. Dose-response curves were generated by plotting fluorescence or absorbance versus log (compound concentration). A best-fit curve was created using nonlinear regression, and the IC50 or EC50 determined from the graph (GraphPad Prism 5; GraphPad Software Inc., La Jolla, Calif.). To analyze continuos variables, unpaired student t-tests and one-way ANOVA with Tukey-Kramer multiple comparisons post-test (GraphPad Prism 5). Significance was set at p<0.05.
On the technique in general: Resazurin is reduced to fluorescent resorufin, in cell work by metabolically active cells.

Series [2] is described as follows: Aqueous solubility by HPLC analysis method. Conditions: in the form of HCl salt. In kind it is physicochemical.
In series [3] the target is T1, human CBS (cystathionine-β-synthase) (Homo sapiens, UniProt P35520).
T1 construct: GST (N); made in house; host or cells: E. coli BL21(DE3) Codon Plus
T1 sequence (P35520 1-551): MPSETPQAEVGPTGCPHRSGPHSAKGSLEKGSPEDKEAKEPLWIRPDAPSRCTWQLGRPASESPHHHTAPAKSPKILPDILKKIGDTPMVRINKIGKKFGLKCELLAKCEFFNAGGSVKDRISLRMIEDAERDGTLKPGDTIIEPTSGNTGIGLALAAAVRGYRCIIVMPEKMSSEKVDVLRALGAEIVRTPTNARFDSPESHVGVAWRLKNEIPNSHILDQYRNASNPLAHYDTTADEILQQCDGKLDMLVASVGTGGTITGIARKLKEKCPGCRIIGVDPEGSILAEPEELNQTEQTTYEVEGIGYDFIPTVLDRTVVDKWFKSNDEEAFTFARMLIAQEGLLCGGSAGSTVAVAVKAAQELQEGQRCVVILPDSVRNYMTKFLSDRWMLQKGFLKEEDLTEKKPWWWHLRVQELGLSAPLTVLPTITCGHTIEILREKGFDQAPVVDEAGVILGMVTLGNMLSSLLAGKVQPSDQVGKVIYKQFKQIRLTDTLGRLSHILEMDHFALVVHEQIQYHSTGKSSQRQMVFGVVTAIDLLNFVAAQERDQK
Put plainly: H2S production by recombinant CBS. It is filed as biochemical. The note with it: 100 μM compound; H2S production as % of control (100%). How it is done:
Recombinant human CBS protein expression and purification. The expression and purification of human CBS was performed as described previously (Asimakopoulou et al. 2013, Br J Pharmacol. 169(4):922-32). Briefly, E. Coli BL21(DE3) Codon Plus cells (Stratagene, La Jolla, Calif., USA) containing the expression vector pGEX-Kg/GST-CBS were grown at 37° C. and 180 rpm in LuriaBertani (LB) broth medium containing 100 μg/ml ampicillin to an absorption of 0.6-0.8 at 600 nm. Protein expression was induced by addition of 0.1 mM IPTG (isopropyl-b-D-thiogalactopyranoside) and cells were further incubated at 30° C. overnight. The bacteria were harvested and sonicated in lysis buffer PBS (140 mM NaCl, 2.7 mM KCl, 10 mM Na2HPO4, 1.8 mM KH2PO4, pH 7.8) containing a protease inhibitors cocktail (Sigma). The protein lysate was loaded onto a GSTrap FF 1 ml affinity column (Amersham Biosciences) and the GST-CBS recombinant protein was eluted with the elution buffer (50 mM Tris-HCl, 10 mM reduced glutathione, pH 8.0) and then dialyzed and concentrated in 10 mM sodium phosphate buffer (pH 8.2) and DTT (1 mM).
Measurement of H2S production by recombinant CBS. The measurement of H2S production by recombinant CBS enzyme was performed as described (Asimakopoulou et al. 2013, Br J Pharmacol. 169(4):922-32). Briefly, each test consisted of a 100 μl reaction mixture in 50 mM sodium phosphate buffer pH 8.2 containing 1 μg of the purified human CBS enzyme, 0.01 mM pyridoxal-5′-phosphate (PLP), 10 mM L-cysteine and 0.5 mM homocysteine. […] The reaction was initiated by transferring the Eppendorf tubes from ice to a 37° C. shaking water bath. After 60 minutes of incubation at 37° C., the reaction was terminated by adding 1% ZnAc followed by 10% trichloroacetic acid. Subsequently, N,N-dimethylphenylendiamine sulfate (20 mM in 7.2 M HCl) and FeCl3 (30 mM in 1.2 M HCl) were added and the optical absorbance of the solutions was measured at 650 nm.

The compound `COc1cc(OC)c2c(=O)cc(-c3ccc(OCCN4CCCC4)cc3)oc2c1` [Compound 16, 5,7-Dimethoxy-2-(4-(2-pyrrolidin-1-yl-ethoxy)phenyl)-chromen-4-one] registered a melting point of 114 to 115 °C. In addition, in series [1], the “Inhibitory Effect (%) on PSC proliferation” value (shortened to “Inhibitory Effect (%)”) was 66%, the inhibition at 5 µM was 48%, the inhibition at 10 µM turned out to be 66% and the inhibition at 20 µM was 98%. In series [1], the “Antiproliferative effect on PSC, result in words” value (shortened to “Antiproliferative effect on PSC”) was “potent antiproliferative effects”. Also, in series [2], the “Aqueous solubility compared with apigenin, result in words” value is “significantly improved solubility” and the “Aqueous solubility, saturated concentration” value was determined as 13.7 mg/mL. Besides, the activity at 100 µM in series [3] was 131%.
Turning to `COc1cc(OC)c2c(=O)cc(-c3ccc(OCCN4CCCCC4)cc3)oc2c1` [Compound 14, 5,7-Dimethoxy-2-(4-(2-piperidin-1-yl-ethoxy)phenyl)-chromen-4-one], the melting point is 79 to 80 °C. Also, in series [1], the “Inhibitory Effect (%)” value came to 64%, the inhibition at 5 µM stood at 45%, the inhibition at 10 µM worked out at 64% and the inhibition at 20 µM was 97%. Moreover, the “Antiproliferative effect on PSC” value in series [1] is reported as “potent antiproliferative effects”. In series [2], the “Aqueous solubility compared with apigenin, result in words” value was “significantly improved solubility” and the “Aqueous solubility, saturated concentration” value is reported as 17.4 mg/mL. In series [3], the activity at 100 µM was 129%.
As to `COc1cc(OC)c2c(=O)cc(-c3ccc(OCC(O)CN(C)C)cc3)oc2c1` (centres unmarked) [Compound 26, 2-(4-(3-Dimethylamino-2-hydroxypropoxy)-phenyl)-5,7-dimethoxy-chromen-4-one], the melting point was in the range of 92 to 93 °C. In series [1], the inhibition at 5 µM worked out at 42%, the inhibition at 10 µM came out at 60% and the inhibition at 20 µM stood at 71%. Besides, the activity at 100 µM in series [3] was determined as 117%.
Turning to `CCN(CC)CCOc1ccc(-c2cc(=O)c3c(OC)cc(OC)cc3o2)cc1` [Compound 17, 2-(4-(2-Diethylaminoethoxy)-phenyl)-5,7-dimethoxy-chromen-4-one], the melting point was 116 to 117 °C. In series [1], the inhibition at 5 µM amounted to 33%, the inhibition at 10 µM stood at 60% and the inhibition at 20 µM amounted to 72%. Besides, the activity at 100 µM in series [3] was 106%.
The matching figures for `COc1cc(OC)c2c(=O)cc(-c3ccc(NCCN(C)C)cc3)oc2c1` [Compound 36, 2-(4-(2-Dimethylaminoethylamino)phenyl)-5,7-dimethoxy-chromen-4-one]: 159 to 160 °C, 30%, 60%, 84% and 112%.
Consider `COc1cc(OC)c2c(=O)cc(-c3ccc(OC4CCN(C)CC4)cc3)oc2c1` [Compound 9, 5,7-Dimethoxy-2-(4-(1-methylpiperidin-4-yloxy)phenyl)-chromen-4-one], for which the melting point lay in the range of 143 to 144 °C. In series [1], the “Inhibitory Effect (%)” value amounted to 49%, the inhibition at 5 µM was 28% and the inhibition at 10 µM was found to be 49%. In addition, the activity at 100 µM in series [3] came to 122%.
Take `COc1cc(OC)c2c(=O)cc(-c3ccc(OCCF)cc3)oc2c1` [Compound 8, 2-(4-(2-Fluoroethoxy)phenyl)-5,7-dimethoxy-chromen-4-one]: the melting point fell in the range of 187 to 188 °C. In series [1], the inhibition at 20 µM was 21% and the “Antiproliferative effect on PSC” value is “slightly increased antiproliferative effects in comparison with 6”. The activity at 100 µM in series [3] came out at 127%.
For `COc1cc(OC)c2c(=O)cc(-c3ccc(OC4CCNCC4)cc3)oc2c1` [Compound 19, 5,7-Dimethoxy-2-(4-(piperidin-4-yloxy)-phenyl)-chromen-4-one], the melting point was 205 to 206 °C. For the same compound, in series [1], the inhibition at 10 µM was 21%. For the same compound, the activity at 100 µM in series [3] came out at 115%.
`COc1cc(OC)c2c(=O)cc(-c3ccc(OCCN(C)C)cc3)oc2c1` [Compound 10, 2-(4-(2-Dimethylaminoethoxy)phenyl)-5,7-dimethoxy-chromen-4-one] registered a melting point of 153 to 154 °C. Further, in series [1], the “Inhibitory Effect (%)” value amounted to 51%, the inhibition at 5 µM amounted to 19%, the inhibition at 10 µM came out at 51% and the inhibition at 20 µM came out at 65%. In series [3], the activity at 100 µM is 125%.
For `COc1cc(OC)c2c(=O)cc(-c3ccc(OCC(O)CN4CCCC4)cc3)oc2c1` (centres unmarked) [Compound 25, 2-(4-(2-Hydroxy-3-pyrrolidin-1-yl-propoxy)phenyl)-5,7-dimethoxy-chromen-4-one], the melting point was 137 to 138 °C. Also, in series [1], the inhibition at 5 µM stood at 21%, the inhibition at 10 µM was determined as 37% and the inhibition at 20 µM turned out to be 57%. Moreover, in series [3], the activity at 100 µM turned out to be 85.9%.
